Laboratory results published in ChEMBL document CHEMBL1141559, “Alpha-hydroxy amides as a novel class of bradykinin B1 selective antagonists” (Bioorg Med Chem Lett, 2008).

Tests used:
B1 bradykinin receptor [1] = biological target: T1, B1 bradykinin receptor (Homo sapiens, UniProt P46663); experiment: Binding affinity to human bradykinin B1 receptor expressed in CHO cells; type: cell-based
T1 sequence (P46663 whole entry): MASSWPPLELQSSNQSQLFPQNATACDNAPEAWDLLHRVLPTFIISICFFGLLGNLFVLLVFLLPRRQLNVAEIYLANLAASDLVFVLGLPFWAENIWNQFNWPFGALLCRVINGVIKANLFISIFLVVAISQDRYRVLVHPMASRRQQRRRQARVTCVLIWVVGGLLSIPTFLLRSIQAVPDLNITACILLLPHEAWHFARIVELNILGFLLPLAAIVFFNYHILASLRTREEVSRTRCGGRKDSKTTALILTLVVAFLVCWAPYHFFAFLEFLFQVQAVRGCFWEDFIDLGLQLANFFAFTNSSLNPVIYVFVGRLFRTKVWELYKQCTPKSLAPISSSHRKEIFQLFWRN

[2] = Clearance in Sprague-Dawley rat at 10 mg/kg, po or 2 mg/kg, iv; type: ADME, organism-based; conditions: in vivo
[3] = Oral bioavailability in Sprague-Dawley rat at 10 mg/kg; type: ADME, organism-based; conditions: in vivo
[4] = Apparent permeability across pig LLC-PK1 cells; type: ADME, cell-based, Sus scrofa
B1 bradykinin receptor [5] = biological target: T1, B1 bradykinin receptor; experiment: […] human bradykinin B1 receptor by FLIPR assay
[6] = Clearance in Beagle dog at 0.25 mg/kg, iv; type: ADME, organism-based, Canis lupus familiaris; parameters: dose 0.25 mg/kg, route intravenous; conditions: in vivo
LLC-PK1 = experiment: Ratio of permeability from basolateral to apical over apical to basolateral side of pig MDR1 transfected LLC-PK1 cells; type: ADME, cell-based, Sus scrofa
[7] = Volume of distribution in Sprague-Dawley rat at 10 mg/kg, po or 2 mg/kg, iv; type: ADME, organism-based; conditions: in vivo, read-out: Vdss
[8] = Half life in Sprague-Dawley rat at 10 mg/kg, po or 2 mg/kg, iv; type: ADME, organism-based; conditions: in vivo
[9] = Volume of distribution in Beagle dog at 0.25 mg/kg, iv; type: ADME, organism-based, Canis lupus familiaris; parameters: dose 0.25 mg/kg, route intravenous; conditions: in vivo
[10] = Half life in Beagle dog at 0.25 mg/kg, iv; type: ADME, organism-based, Canis lupus familiaris; parameters: dose 0.25 mg/kg, route intravenous; conditions: in vivo
Cytochrome P450 2D6 = Cytochrome P450 2D6 (Homo sapiens, UniProt P10635); experiment: Inhibition of CYP2D6; type: ADME
Sequence of Cytochrome P450 2D6 (P10635 whole entry): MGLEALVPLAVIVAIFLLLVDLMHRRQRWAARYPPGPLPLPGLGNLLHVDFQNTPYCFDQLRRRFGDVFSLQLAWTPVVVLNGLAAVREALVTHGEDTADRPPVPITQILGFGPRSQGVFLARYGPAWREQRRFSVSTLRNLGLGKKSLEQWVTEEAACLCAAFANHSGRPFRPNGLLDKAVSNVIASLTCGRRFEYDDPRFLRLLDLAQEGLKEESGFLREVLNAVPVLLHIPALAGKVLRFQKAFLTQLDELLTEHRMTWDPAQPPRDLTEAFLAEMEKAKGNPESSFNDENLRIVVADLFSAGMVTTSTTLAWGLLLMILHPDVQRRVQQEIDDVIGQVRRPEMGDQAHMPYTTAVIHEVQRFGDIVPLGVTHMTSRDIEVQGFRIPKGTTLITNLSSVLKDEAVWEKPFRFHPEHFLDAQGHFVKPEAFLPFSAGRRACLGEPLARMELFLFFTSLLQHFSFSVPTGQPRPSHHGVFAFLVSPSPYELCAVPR

Cytochrome P450 3A4 = Cytochrome P450 3A4 (Homo sapiens, UniProt P08684); experiment: Inhibition of CYP3A4; type: ADME
Sequence of Cytochrome P450 3A4 (P08684 whole entry): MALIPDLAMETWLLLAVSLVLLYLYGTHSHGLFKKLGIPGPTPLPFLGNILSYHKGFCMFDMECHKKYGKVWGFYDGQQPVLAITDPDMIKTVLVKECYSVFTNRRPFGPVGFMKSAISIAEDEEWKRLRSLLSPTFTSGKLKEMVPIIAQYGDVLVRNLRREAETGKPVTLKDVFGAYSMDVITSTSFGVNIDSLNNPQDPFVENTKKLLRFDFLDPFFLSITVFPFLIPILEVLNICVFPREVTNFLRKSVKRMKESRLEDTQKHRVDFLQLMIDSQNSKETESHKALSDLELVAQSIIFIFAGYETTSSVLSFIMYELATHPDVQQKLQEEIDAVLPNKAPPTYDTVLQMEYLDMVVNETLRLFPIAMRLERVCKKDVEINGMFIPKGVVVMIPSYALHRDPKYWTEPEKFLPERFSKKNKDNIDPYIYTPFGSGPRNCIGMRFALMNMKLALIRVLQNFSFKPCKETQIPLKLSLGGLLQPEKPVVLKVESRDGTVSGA

Cytochrome P450 2C9 = Cytochrome P450 2C9 (Homo sapiens, UniProt P11712); experiment: Inhibition of CYP2C9; type: ADME
Sequence of Cytochrome P450 2C9 (P11712 whole entry): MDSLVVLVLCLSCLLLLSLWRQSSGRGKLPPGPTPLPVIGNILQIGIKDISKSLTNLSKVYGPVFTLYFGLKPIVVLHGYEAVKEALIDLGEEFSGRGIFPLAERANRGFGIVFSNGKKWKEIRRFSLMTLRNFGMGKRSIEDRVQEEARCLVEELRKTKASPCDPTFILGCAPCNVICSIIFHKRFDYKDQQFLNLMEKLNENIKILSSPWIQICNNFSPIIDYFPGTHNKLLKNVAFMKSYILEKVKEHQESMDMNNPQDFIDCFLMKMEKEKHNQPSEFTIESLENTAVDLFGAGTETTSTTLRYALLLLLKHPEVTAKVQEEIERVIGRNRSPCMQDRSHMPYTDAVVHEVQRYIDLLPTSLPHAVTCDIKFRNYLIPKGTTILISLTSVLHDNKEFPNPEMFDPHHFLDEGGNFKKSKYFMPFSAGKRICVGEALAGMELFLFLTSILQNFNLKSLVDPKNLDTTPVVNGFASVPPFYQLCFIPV

[11] = Oral bioavailability in rhesus monkey at 1 mg/kg; type: ADME, organism-based, Macaca mulatta; conditions: in vivo
[12] = Clearance in rhesus monkey at 1 mg/kg, po or 1 mg/kg, iv; type: ADME, organism-based, Macaca mulatta; conditions: in vivo
[13] = Oral bioavailability in Beagle dog at 3 mg/kg by cassette dosing; type: ADME, organism-based, Canis lupus familiaris; conditions: in vivo
[14] = Half life in rhesus monkey at 1 mg/kg, po or 1 mg/kg, iv; type: ADME, organism-based, Macaca mulatta; conditions: in vivo
[15] = Half life in Beagle dog at 3 mg/kg, po or 1 mg/kg, iv by cassette dosing; type: ADME, organism-based, Canis lupus familiaris; conditions: in vivo
[16] = Clearance in Beagle dog at 3 mg/kg, po or 1 mg/kg, iv by cassette dosing; type: ADME, organism-based, Canis lupus familiaris; conditions: in vivo

Compound | Ki (B1 bradykinin receptor [1]) [nM] | Papp [4] [×10⁻⁶ cm/s] | clearance [6] [mL/min/kg] | Ratio (LLC-PK1) | Vd [9] [L/kg] | half-life [10] [h] | also measured
COC(=O)c1c(Cl)cc(Cl)cc1-c1cnc([C@@H](C)NC(=O)[C@@](C)(O)C(F)(F)F)c(F)c1 | 0.35 | 23 | 3.2 | 1.6 | 0.73 | 3.6 | clearance [2]: 7.8 mL/min/kg; bioavailability [3]: 47%; IC50 (B1 bradykinin receptor [5]): 3.93 nM; Vd [7]: 1.2 L/kg; half-life [8]: 5.6 h
COC(=O)c1c(F)cccc1-c1ccc(CNC(=O)C(O)(C(F)(F)F)C(F)(F)F)c(F)c1 | 95 |  |  |  |  |  | 
COC(=O)c1c(F)cccc1-c1ccc(CNC(=O)CO)c(F)c1 | 516 |  |  |  |  |  | 
Cc1noc(-c2c(Cl)cc(Cl)cc2-c2cnc([C@@H](C)NC(=O)[C@@](C)(O)C(F)(F)F)c(F)c2)n1 | 0.79 | 33 | 0.91 | 1.3 | 0.66 | 9.5 | clearance [2]: 20 mL/min/kg; bioavailability [3]: 21%; IC50 (B1 bradykinin receptor [5]): 6.65 nM; Vd [7]: 1 L/kg; half-life [8]: 3.9 h
C[C@@H](NC(=O)[C@@](C)(O)C(F)(F)F)c1ncc(-c2cc(Cl)cc(F)c2-c2nnn(C)n2)cc1F | 0.59 | 36 | 0.22 | 2.8 | 0.47 | 38 | clearance [2]: 1 mL/min/kg; bioavailability [3]: 53%; IC50 (B1 bradykinin receptor [5]): 4.9 nM; IC50 (Cytochrome P450 2D6): > 10000 nM; Vd [7]: 0.54 L/kg; IC50 (Cytochrome P450 3A4): > 10000 nM; half-life [8]: 27 h; IC50 (Cytochrome P450 2C9): > 10000 nM
Cc1noc(-c2c(F)cc(Cl)cc2-c2cnc([C@@H](C)NC(=O)[C@@](C)(O)C(F)(F)F)c(F)c2)n1 | 0.66 | 35 | 1 | 1.7 | 1.2 | 15 | clearance [2]: 22 mL/min/kg; bioavailability [3]: 32%; IC50 (B1 bradykinin receptor [5]): 6.65 nM; Vd [7]: 1.3 L/kg; half-life [8]: 1.2 h
COC(=O)c1c(F)cccc1-c1ccc(CNC(=O)[C@@H](O)C(F)(F)F)c(F)c1 | 109 |  |  |  |  |  | 
C[C@@H](NC(=O)[C@@](C)(O)C(F)(F)F)c1ncc(-c2cc(Cl)cc(F)c2-c2nnn(C)n2)cc1Cl | 0.43 | 26 | 1.3 | 1.8 | 0.74 | 9.8 | clearance [2]: 2.4 mL/min/kg; bioavailability [3]: 71%; Vd [7]: 0.86 L/kg; half-life [8]: 4.9 h
COC(=O)c1c(F)cccc1-c1ccc(CNC(=O)[C@H](O)C(F)(F)F)c(F)c1 | 479 |  |  |  |  |  | 
Cc1nc(-c2c(F)cc(Cl)cc2-c2cnc([C@@H](C)NC(=O)[C@@](C)(O)C(F)(F)F)c(F)c2)no1 |  | 27 | 0.42 |  | 0.51 | 17 | bioavailability [11]: 52%; clearance [2]: 4.9 mL/min/kg; clearance [12]: 7.1 mL/min/kg; bioavailability [3]: 34%; bioavailability [13]: 84%; Vd [7]: 0.52 L/kg; half-life [14]: 1.3 h; half-life [8]: 2 h; half-life [15]: 11 h; clearance [16]: 0.45 mL/min/kg
COC(=O)c1c(F)cccc1-c1ccc(CNC(=O)C2(NC(=O)C(F)(F)F)CC2)c(F)c1 |  |  |  | 4.1 |  |  | 
COC(=O)c1c(F)cccc1-c1ccc(CNC(=O)C2(O)CC2)c(F)c1 | 59.1 |  |  |  |  |  | 

Now from value to compound, other results behind:

Ki (B1 bradykinin receptor [1]) [nM] | Papp [4] [×10⁻⁶ cm/s] | clearance [6] [mL/min/kg] | Ratio (LLC-PK1) | Vd [9] [L/kg] | half-life [10] [h] | Compound | also measured
1090 |  |  |  |  |  | CCC(O)(CC)C(=O)NCc1ccc(-c2cccc(F)c2C(=O)OC)cc1F | 
71.5 |  |  |  |  |  | COC(=O)c1c(F)cccc1-c1ccc(CNC(=O)[C@@H](O)C(C)C)c(F)c1 | 
660 |  |  |  |  |  | COC(=O)c1c(F)cccc1-c1ccc(CNC(=O)[C@H](C)O)c(F)c1 | 
88.5 |  |  |  |  |  | COC(=O)c1c(F)cccc1-c1ccc(CNC(=O)[C@@H](O)C(C)(C)C)c(F)c1 | 
83.5 |  |  |  |  |  | COC(=O)c1c(F)cccc1-c1ccc(CNC(=O)[C@@](C)(O)C(C)C)c(F)c1 | 
24.5 | 32 | 16 | 1.6 | 1.2 | 1.4 | COC(=O)c1c(F)cccc1-c1ccc(CNC(=O)[C@@](C)(O)C(F)(F)F)c(F)c1 | IC50 (B1 bradykinin receptor [5]): 43.6 nM
1050 |  |  |  |  |  | COC(=O)c1c(F)cccc1-c1ccc(CNC(=O)[C@@H](C)O)c(F)c1 | 
579 |  |  |  |  |  | COC(=O)c1c(F)cccc1-c1ccc(CNC(=O)[C@](C)(O)C(F)(F)F)c(F)c1 | 
125 |  |  |  |  |  | COC(=O)c1c(F)cccc1-c1ccc(CNC(=O)C(C)(C)O)c(F)c1 | 
